In the assay the target is HIV-1 pNL4-3 integrase (Human immunodeficiency virus type 1 group M subtype B (isolate NY5) (HIV-1), UniProt P12497). As to the kind of experiment: Determination of enzyme (HIV integrase) inhibitory activity. It counts as biochemical. The following applies: calculated from inhibition rate (fluorescence). As for the experimental part:
The following explains evaluation methods of the HIV integrase inhibitory activity of the compound of the present invention.
A full-length gene sequence (Accession No.: M19921) of HIV-1 pNL4-3 integrase was inserted into restriction enzyme Nde I and Xho I sites of plasmid pET21a(+) (manufactured by Novagen) to construct an integrase expression vector pET21a-IN-Wild type.
Escherichia coli recombinant BL21(DE3) transformed with plasmid pET21a-IN-Wild type obtained in (i) was shake cultured at 30° C. in a liquid medium containing ampicillin. When the culture reached the logarithmic growth phase, isopropyl-β-D-thiogalactopyranoside was added to promote expression of integrase gene. The culture was continued for 5 hr to promote accumulation of the integrase protein. The recombinant E. coli was collected in pellets by centrifugal separation and preserved at −80° C.
This Escherichia coli was suspended in Lysis buffer (50 mM Tris-HCl (pH 7.6), 10 mM MgCl2, 5 mM DTT), and disrupted by repeating treatments of pressurization and depressurization, and insoluble fraction was collected by centrifugation at 4° C., 18,000 rpm for 60 min. This was suspended in Lysis buffer containing a protease inhibitor, […] and 10 mM CHAPS were added, and the mixture was stirred at 4° C. for 30 min. Water-soluble fraction was collected by centrifugation at 4° C., 9,000 rpm for 30 min. The obtained fraction was diluted with a column buffer (50 mM Tris-HCl (pH 7.6), 1 mM DTT, 10% Glycerol, 10 mM CHAPS) to 5-fold, and the mixture was applied to heparin column (HiPrep 16/10 Heparin FF column: manufactured by GE Healthcare Bio-Sciences). Using a column buffer containing 1M NaCl, a protein was eluted with 0-1M NaCl concentration gradient, and an eluted fraction containing an integrase protein was collected. The obtained fraction was diluted 5-fold with a column buffer (50 mM Tris-HCl (pH 7.6), 1 mM DTT, 10% Glycerol, 10 mM CHAPS), and the mixture was applied to cation exchange column (Mono-S column: manufactured by GE Healthcare Bio-Sciences). Using a column buffer containing 1M NaCl, a protein was eluted with 0-1M NaCl concentration gradient, and an eluted fraction containing an integrase protein was collected. The obtained fractions of the integrase protein were collected, and preserved at −80° C.
The following DNA synthesized by FASMAC was dissolved in TE buffer (10 mM Tris-hydrochloric acid (pH 8.0), 1 mM EDTA) and mixed with donor DNA, target DNA, and each complementary strand (+ and − strands) to 1 μM. The mixture was heated at 95° C. for 5 min, 80° C. for 10 min, 70° C. for 10 min, 60° C. for 10 min, 50° C. for 10 min and 40° C. for 10 min and kept at 25° C. to give a double stranded DNA, which was used for the test.
Donor DNA (+strand having biotin attached to the 5′ terminal)
Target DNA (+, − strands both having digoxigenin attached to the 3′ terminal)
The donor DNA was diluted with TE buffer to 20 nM, of which 50 μL was added to each well of streptavidin-coated black plate (manufactured by PIAS Corporation) and allowed to adsorb at 37° C. for 20 min. The plate was washed with phosphate buffer (Dulbecco's PBS, Sanko Junyaku Co., Ltd.) containing 0.1% Tween 20 and phosphate buffer. Then, an enzyme reaction mixture (70 μL), a test substance (10 μL) diluted with the enzyme reaction mixture and 0.75 μM integrase protein (10 μL) were added to each well and the mixture was reacted at 37° C. for 60 min. composition of enzyme reaction mixture: 30 mM MOPS (3-morpholinopropanesulfonic acid), 5 mM magnesium chloride, 3 mM DTT (dithiothreitol), 0.1 mg/mL BSA (bovine serum albumin), 5% glycerol, 10% DMSO (dimethyl sulfoxide), 0.01% Tween 20.
Then, 25 nM target DNA (10 μL) was added, and the mixture was reacted at 37° C. for 20 min and washed with phosphate buffer containing 0.1% Tween 20 to stop the reaction. […]
A word on the IC50: it is the concentration needed to halve the response being measured. Consider `CC(C)N1C[C@](C)(C(=O)N2CCCC2)n2cc(-c3nnc(Cc4ccc(F)cc4)s3)c(=O)c(O)c2C1=O` [Example 179], for which the concentration for half-maximal inhibition (IC50) was 19 nM.
As to `CC(C)N1C(=O)c2c(O)c(=O)c(-c3nnc(Cc4ccc(F)cc4F)s3)cn2CC12CCOCC2` [Example 100], the IC50 was 8.1 nM.
Take `COC[C@H]1[C@@H](C)N(CC2CC2)C(=O)c2c(O)c(=O)c(-c3nnc(Cc4ccc(F)cc4)s3)cn21` [Example 259]: the 50% inhibitory concentration (IC50) was 9 nM.
With `CC(C)N1CC(C)(C(=O)N2CCCCC2)n2cc(-c3ncc(Cc4ccc(F)cc4)s3)c(=O)c(O)c2C1=O` (centres unmarked) [Example 108], the IC50 was 18 nM.
Consider `CC(C)N1C[C@](C)(C(=O)N2CCC2)n2cc(-c3nnc(Cc4ccc(F)cc4)s3)c(=O)c(O)c2C1=O` [Example 2], for which the IC50 is 13 nM.
Under `COCCN(C)C(=O)[C@@]1(C)CN(C(C)C)C(=O)c2c(O)c(=O)c(-c3nnc(Cc4ccc(F)cc4)s3)cn21` [Example 202] stands 13 nM; under `COC[C@H]1CN(C(C)C)C(=O)c2c(O)c(=O)c(-c3nnc(Cc4ccc(F)c(OC)c4)s3)cn21` [Example 250], 17 nM.
Turning to `CC(C)N1CC(C)(C(=O)N(C)C)n2cc(-c3nnc(Cc4ccc(F)c(F)c4)s3)c(=O)c(O)c2C1=O` (centres unmarked) [Example 157], the half-maximal inhibitory concentration (IC50) is 29 nM.
As for `CC[C@@H](C)N1C[C@@H](COC)n2cc(-c3nnc(Cc4ccc(F)cc4)s3)c(=O)c(O)c2C1=O` [Example 167], the figure is 10 nM; as for `CC(C)N1C(=O)c2c(O)c(=O)c(-c3nnc(Cc4ccc(F)cc4F)s3)cn2C[C@H]1CN(C)S(C)(=O)=O` [Example 154], 7.3 nM.
As for `CCOC[C@H]1CN(C(C)C)C(=O)c2c(O)c(=O)c(-c3ncc(Cc4ccc(F)cc4)s3)cn21` [Example 141], the figure is 8 nM; as for `CC(C)N1C[C@](C)(C(=O)N2CC(O)C2)n2cc(-c3nnc(Cc4ccc(F)cc4)s3)c(=O)c(O)c2C1=O` [Example 208], 12 nM; as for `CCN1C(=O)c2c(O)c(=O)c(-c3nnc(Cc4ccc(F)cc4F)s3)cn2C[C@@H]1COC` [Example 114], 8.1 nM.
For the compound `CC(=O)NC[C@@H]1Cn2cc(-c3nnc(Cc4ccc(F)cc4F)s3)c(=O)c(O)c2C(=O)N1C(C)C` [Example 137], the 50% inhibitory concentration (IC50) is 8.6 nM.
As for `COCCOC[C@H]1CN(CC(C)C)C(=O)c2c(O)c(=O)c(-c3nnc(Cc4ccc(F)cc4F)s3)cn21` [Example 45], the figure is 11 nM; as for `CC[C@@H]1Cn2cc(-c3nnc(Cc4ccc(F)cc4)s3)c(=O)c(O)c2C(=O)N1C(C)C` [Example 278], 9.9 nM; as for `CO[C@@H](C)[C@@H]1Cn2cc(-c3nnc(Cc4ccc(F)cc4)s3)c(=O)c(O)c2C(=O)N1C(C)C` [Example 334], 9.1 nM.
Under `COCC1CN(C(=O)[C@@]2(C)CN(C(C)C)C(=O)c3c(O)c(=O)c(-c4ncc(Cc5ccc(F)cc5)s4)cn32)C1` [Example 238] stands 18 nM; under `CC(C)N1C(=O)c2c(O)c(=O)c(-c3nnc(Cc4ccc(F)cc4)s3)cn2C[C@H]1CN(C)C(=O)C(C)(C)C` [Example 182], 9.7 nM.
As for `CC(C)N1C(=O)c2c(O)c(=O)c(-c3nnc(Cc4ccc(F)cc4F)s3)cn2CC1CC#N` (centres unmarked) [Example 82], the figure is 4.9 nM; as for `CC(C)N1C[C@](C)(C(=O)N2CCC2)n2cc(-c3ncc(Cc4ccc(F)cc4)s3)c(=O)c(O)c2C1=O` [Example 236], 13 nM; as for `CC(C)N1C[C@](C)(C(=O)N(C)C)n2cc(-c3nnc(Cc4ccc(F)cc4)s3)c(=O)c(O)c2C1=O` [Example 177], 17 nM.
For `CCN(C)C(=O)[C@]1(C)CN(C)C(=O)c2c(O)c(=O)c(-c3ncc(Cc4ccc(F)cc4)s3)cn21` [Example 265], the IC50 is 9.3 nM.
Under `CCN(CC)C(=O)CC1CN(C(C)C)C(=O)c2c(O)c(=O)c(-c3ncc(Cc4ccc(F)cc4F)s3)cn21` (centres unmarked) [Example 77] stands 11 nM.
Under `COCCOC[C@@H]1Cn2cc(-c3nnc(Cc4ccc(F)cc4)s3)c(=O)c(O)c2C(=O)N1C(C)C` [Example 83] stands 7.1 nM; under `CC(C)N1CC(CO)n2cc(-c3ncc(Cc4ccc(F)cc4F)s3)c(=O)c(O)c2C1=O` (centres unmarked) [Example 19], 8.1 nM; under `COC[C@H]1CN([C@H](C)C2CC2)C(=O)c2c(O)c(=O)c(-c3nnc(Cc4ccc(F)cc4)s3)cn21` [Example 302], 9.9 nM.
`CO[C@@H](C)COC[C@H]1CN(C(C)C)C(=O)c2c(O)c(=O)c(-c3nnc(Cc4ccc(F)cc4)s3)cn21` [Example 385]: the 50% inhibitory concentration (IC50) was 8.2 nM.
For `CC(C)N1CC(C)(CO)n2cc(-c3ncc(Cc4ccc(F)cc4)s3)c(=O)c(O)c2C1=O` (centres unmarked) [Example 111], the concentration for half-maximal inhibition (IC50) was 20 nM.
For the compound `CC(C)N1CC(CC(=O)N2CCCCC2)n2cc(-c3ncc(Cc4ccc(F)cc4F)s3)c(=O)c(O)c2C1=O` (centres unmarked) [Example 41], the IC50 was 7.2 nM.
`CCN1C(=O)c2c(O)c(=O)c(-c3ncc(Cc4ccc(F)cc4)s3)cn2C[C@H]1C` [Example 330]: the IC50 is 6.4 nM.
In the case of `COC[C@H]1CN(C(C)C)C(=O)c2c(O)c(=O)c(-c3nnc(Cc4ccc(F)cc4F)s3)cn21` [Example 85], the IC50 is 7.5 nM.
Consider `CC(C)NC(=O)[C@]1(C)Cn2cc(-c3nnc(Cc4ccc(F)cc4)s3)c(=O)c(O)c2C(=O)N1C(C)C` [Example 308], for which the concentration for half-maximal inhibition (IC50) was 13 nM.
Under `COC[C@H]1Cn2cc(-c3nnc(Cc4ccc(F)cc4)s3)c(=O)c(O)c2C(=O)N1C(C)C` [Example 95] stands 9.5 nM.
In the case of `CC(C)N1C[C@@](C)(C(=O)N(C)C)n2cc(-c3ncc(Cc4ccc(F)cc4)s3)c(=O)c(O)c2C1=O` [Example 234], the IC50 was 18 nM.
Consider `CCN1C(=O)c2c(O)c(=O)c(-c3nnc(Cc4ccc(F)cc4)s3)cn2[C@H](COC)[C@H]1C` [Example 289], for which the half-maximal inhibitory concentration (IC50) was 10 nM.
`CCN(C)C(=O)[C@]1(C)Cn2cc(-c3nnc(Cc4ccc(F)cc4)s3)c(=O)c(O)c2C(=O)N1C(C)C` [Example 331]: the IC50 is 9.3 nM.
For `CC(C)N1CC(CC#N)n2cc(-c3ncc(Cc4ccc(F)cc4F)s3)c(=O)c(O)c2C1=O` (centres unmarked) [Example 49], the IC50 was 5.1 nM.
As for `CC(C)N1C(=O)c2c(O)c(=O)c(-c3nnc(Cc4ccc(F)cc4F)s3)cn2C[C@H]1CNC(=O)C(C)(C)C` [Example 138], the figure is 11 nM; as for `CO[C@H]1CCN(C(=O)[C@@]2(C)CN(C(C)C)C(=O)c3c(O)c(=O)c(-c4ncc(Cc5ccc(F)cc5)s4)cn32)C1` [Example 214], 16 nM; as for `CCNC(=O)[C@]1(COC)CN(C(C)C)C(=O)c2c(O)c(=O)c(-c3ncc(Cc4ccc(F)cc4)s3)cn21` [Example 393], 15 nM.
As for `CN1C[C@@](C)(C(=O)N2CCC2)n2cc(-c3ncc(Cc4ccc(F)cc4)s3)c(=O)c(O)c2C1=O` [Example 266], the IC50 is 11 nM.
Under `CC(C)N1CC(C(=O)O)n2cc(-c3ncc(Cc4ccc(F)cc4F)s3)c(=O)c(O)c2C1=O` (centres unmarked) [Example 23] stands 12 nM; under `COC[C@H]1Cn2cc(-c3nnc(Cc4ccc(F)cc4F)s3)c(=O)c(O)c2C(=O)N1C(C)C` [Example 96], 6.7 nM; under `COCCOC[C@H]1CN(C(C)C)C(=O)c2c(O)c(=O)c(-c3nnc(Cc4ccc(F)cc4F)s3)cn21` [Example 134], 16 nM.
With `CCNC(=O)[C@]1(C)CN(C2CC2)C(=O)c2c(O)c(=O)c(-c3ncc(Cc4ccc(F)cc4)s3)cn21` [Example 267], the 50% inhibitory concentration (IC50) is 11 nM.
Consider `CCN1C(=O)c2c(O)c(=O)c(-c3nnc(Cc4ccc(F)cc4)s3)cn2CC1(COC)COC` [Example 301], for which the IC50 is 8 nM.

Values taken from patent publication US10065950B2, “Substituted thiazoles as HIV integrase inhibitors” (Japan Tobacco Inc., priority 2010, dated 2018).
